Results on 71 molecules are retold here after PMC7822874, “Chemoprotective antimalarials identified through quantitative high-throughput screening of Plasmodium blood and liver stage parasites” (Scientific Reports, 2021).

One may read the AC50 as the concentration giving half of the maximal activity seen.

One experiment concerns Plasmodium falciparum Dd2 asexual blood stage parasites. The experiment in a line: microbe, parasite or virus in culture. Further details: species or system Plasmodium falciparum Dd2 in human erythrocytes; single determination (one 11-point concentration-response curve). The conditions noted are these: Plasmodium falciparum, DD2, Erythrocyte, 72 h.
The molecule `Cc1ccc(C)c(OCCn2cc(C(=O)c3ccco3)c3ccccc32)c1` [NCGC00101856-01] gave an AC50 of 5.31 µM.

For `CCN1CCN(Cc2ccc(NC(=O)c3ccc(C)c(NC(=O)C4=NN(c5ccccc5)C(=O)C4)c3)cc2C(F)(F)F)CC1` [MLS003105987-01], half-maximal activity (AC50) was put at 8.41 µM.

Staying with this experiment, now noted: Plasmodium falciparum, DD2, Erythrocyte, 72 h; read-out: AC50.
With `Cc1cccc(CN2CCN(C(=O)CCl)CC2)c1` [MLS000336096-01], the AC50 is 13.3 µM.

Take `COc1ccccc1CN1CCC(CNC(=O)c2cnn(-c3cccc(Cl)c3)c2C2CCN(C(=O)OC(C)(C)C)CC2)CC1` [NCGC00126858-01]: the AC50 was determined as 7.5 µM.

On to `O=C(Nc1ccncc1)c1cc(-c2cccc(Br)c2)nc2ccccc12` [MLS001159350-01], for which the AC50 was 13.3 µM.

Turning to `COCCN1C(=O)c2ccccc2C(C(=O)Nc2nc3ccccc3[nH]2)C12CCCC2` (centres unmarked) [NCGC00423488-01], the AC50 turned out to be 4.22 µM.

`O=S(=O)(c1ccc(F)cc1)N1CCN(/C(S)=N/CC2CCCO2)CC1` (centres unmarked) [MLS001148319-01]: the AC50 worked out at 6.68 µM.

For `CCOC(=O)c1cccc(NC(=O)CCn2c(-c3ccc(F)cc3)cc(C(=O)OCC)c2C)c1` [NCGC00140860-01], the AC50 was determined as 0.075 µM.

`Oc1cc(Nc2ccccc2)cc2cccnc12` [NCGC00183789-01]: the AC50 was determined as 6.68 µM.

Regarding `COc1cc2nc(NCCC(C)C)n3nc(-c4ccccc4)nc3c2cc1OC` [NCGC00112851-01], the AC50 was 0.422 µM.

Turning to `CC(C)Cn1c(-c2ccco2)nc2c(c(=O)c3ccccc3n2C)c1=O` [MLS000331990-01], the AC50 came to 9.44 µM.

Take `CCCOc1cccc(C2c3c(oc4cc(C)c(C)cc4c3=O)C(=O)N2CCCN2CCOCC2)c1` (centres unmarked) [NCGC00101917-01]: the AC50 came to 13.3 µM.

In the case of `Cc1cc(C)c(CNC(=O)c2cc(-c3cccnc3)cc3c2OCCN3C(C)C)c(=O)[nH]1` [NCGC00416981-01], the AC50 was found to be 19.3 µM.

As to `N#Cc1c2c(c(NCc3ccco3)n3c1nc1ccccc13)CCC2` [MLS000109113-01], the AC50 worked out at 2.37 µM.

On to `CC(C)N1CCN(Cc2ccc(-c3ccccc3)cc2)CC1CCO` (centres unmarked) [MLS001000401-01], for which the AC50 was determined as 6.68 µM.

Regarding `O=C(c1ccc2c(c1)OCO2)N1CCC2(CC1)COc1ccccc1CN2` [NCGC00477555-01], the AC50 turned out to be 5.31 µM.

Consider `Cc1cccc(C(=O)N2CCc3cc(CNC(=O)c4ccc(Br)o4)ccc32)c1` [NCGC00137781-01], for which the AC50 was 9.44 µM.

With `COC(=O)c1nc2n(n1)C(c1ccc([N+](=O)[O-])cc1)C(C(=O)Nc1ccc(Cl)cc1)=C(C)N2` (centres unmarked) [MLS000582454-01], the AC50 turned out to be 5.31 µM.

As to `CCO[C@@H]1OC(C(=O)N2CCN(Cc3ccc4c(c3)OCO4)CC2)=C[C@H](c2cn(C(C)=O)c3ccccc23)[C@H]1CCCO` [MLS000834519-01], the AC50 was found to be 9.44 µM.

For the molecule `O=C1N=C(NC2CCCCC2)C2(CCN(Cc3ccc(F)cc3)C2)N1c1cc(F)cc(F)c1` (centres unmarked) [NCGC00374193-01], the AC50 was 4.22 µM.

For the molecule `COc1ccc(CCNC(=O)CC(c2ccccc2OC)c2c[nH]c3ccccc23)cc1OC` (centres unmarked) [NCGC00473331-01], the AC50 is 13.3 µM.

On to `Cc1nn2c3c(cnc2c1-c1ccccc1)C(=O)CC(c1ccco1)C3` (centres unmarked) [MLS000080714-01], for which the AC50 is 9.44 µM.

Turning to `Cc1nn2c(c1-c1ccccc1[S+](C)(=O)[O-])N(CCC(C)C)CCC2` [NCGC00420381-01], the AC50 is 9.68 µM.

On to `Cc1noc(C)c1[S+](=O)([O-])N1CCCN(Cc2ccncc2)C(c2ccccc2)CC(=O)NCC1` (centres unmarked) [NCGC00467205-01], for which the AC50 stood at 7.5 µM.

Consider `SC(=NCc1ccccc1)N1CCn2cccc2C1c1cccnc1` (centres unmarked) [MLS000683224-01], for which the AC50 worked out at 9.44 µM.

Consider `O=C1c2c(nc(CN3CCCC(CO)C3)n2Cc2ccccc2)NCCN1Cc1cccc(Cl)c1` (centres unmarked) [NCGC00415148-01], for which the AC50 was 15 µM.

`CCC(CC)c1cc([C@H]2CN3CC[C@H]2C[C@@H]3CNC(=O)c2ccccc2)nc(-c2ccncc2)n1` [NCGC00400223-01]: the AC50 was 10.6 µM.

Regarding `COc1cc([N+](=O)[O-])ccc1NC(=O)Nc1nc2c(s1)CCCC2` [MLS000581295-01], the AC50 worked out at 6.68 µM.

Turning to `Cc1ccc(Cl)cc1N1CCN(C(=O)c2cn(CC(C)C)c(=O)c3c2c2ccccc2n3C)CC1` [NCGC00106023-01], the AC50 was determined as 3.35 µM.

`Cc1oc2ccc(O)c(CN3CCCC(C)C3)c2c1C(=O)Nc1ccccc1` (centres unmarked) [NCGC00115528-01]: the AC50 was 2.11 µM.

Regarding `Cc1ccc(CN2CCC(CNC(=O)c3cnn(-c4ccc(C)cc4)c3C3CCN(C(=O)OC(C)(C)C)CC3)CC2)cc1` [NCGC00126945-01], the AC50 amounted to 8.41 µM.

`Cc1cc(Nc2ccc(C)c(F)c2)n2ncnc2n1` [MLS000033310-01]: the AC50 came to 9.44 µM.

For `O=C(Nc1ccc(Cl)cc1)c1cc2c(-c3ccccc3)nn(-c3ccccc3)c2s1` [NCGC00102088-01], the AC50 is 2.37 µM.

Turning to `Cc1ccc(-c2nnc(Nc3ccc(OCC(N)=O)cc3)c3ccccc23)cc1[S+](=O)([O-])NCC1CCCO1` (centres unmarked) [NCGC00100178-01], the AC50 was 4.73 µM.

As to `CC1CCN(CC2CCCCCN2C(=O)NCc2ccc(F)cc2)CC1` (centres unmarked) [NCGC00456722-01], the AC50 is 13.3 µM.

Consider `CCc1cc(C(=O)OC)c(NC(=O)CN2CCN(C(=O)c3ccco3)CC2)s1` [MLS001034503-01], for which the AC50 is 5.96 µM.

As to `Cc1nn(C(=N)S)c(O)c1C(c1ccccc1)C(C#N)C#N` (centres unmarked) [MLS000077118-01], the AC50 came to 6.68 µM.

In the case of `CCOc1ccc(NC(=O)CCc2c(C)nc3cc(-c4ccc(Cl)cc4)nn3c2C)cc1` [NCGC00110024-01], the AC50 stood at 6.68 µM.

`O=C1CC(c2ccccc2)N(C(=O)CNC(=O)c2ccc3[nH]ccc3c2)CCCCCN1` (centres unmarked) [NCGC00465493-01]: the AC50 turned out to be 15 µM.

Regarding `CC(C(=O)NC1CCCC1)N1CCN(S(=O)(=O)c2ccc(C(C)(C)C)cc2)CC1` (centres unmarked) [MLS002169740-01], the AC50 came out at 8.41 µM.

Regarding `COc1ccc(NC(=O)c2c(C)oc3ccc(O)c(CN4CCCCCC4)c23)cc1Cl` [NCGC00115677-01], the AC50 came to 1.88 µM.

With `N#Cc1cc(C#N)c(N2CCN(c3cccc(Cl)n3)CC2)nc1N` [MLS000325470-01], the AC50 was 3.35 µM.

As to `Cc1noc(-c2cccs2)c1C(=O)NC(C)c1cccc2ccccc12` (centres unmarked) [NCGC00358764-02], the AC50 was determined as 0.668 µM.

In the case of `CCN1CCN(c2cc(C)c3cc(NC(=O)c4cc(OC)cc(OC)c4)ccc3n2)CC1` [NCGC00103842-01], the AC50 worked out at 3.35 µM.

As for `O=C(NCCc1ccncc1)c1ccc(-c2nnc3ccc(NC(=O)C4CCC4)cn23)cc1` [NCGC00429902-01], the AC50 was determined as 2.99 µM.

Consider `FC(F)(F)CN1C2CCC1CN(c1nnc(Cl)c3ccccc13)C2` [NCGC00375660-01], for which the AC50 stood at 2.11 µM.

With `CC1=C[C@@H](CNC2CC2)[C@H](C(C)C)C[C@H]1Cc1nnc(-c2ccc(C)cc2)o1` [NCGC00394380-01], the AC50 was determined as 17.2 µM.

In the case of `COc1cc(C)ccc1OCCSc1nc2ccc(NC(=O)c3cccs3)cc2s1` [NCGC00118564-01], the AC50 is 13.3 µM.

Turning to `CCOC(=O)c1nnn(-c2nonc2N)c1-c1ccc(Cl)cc1` [MLS000727794-01], the AC50 was 5.31 µM.

With `CC(=O)Nc1ccc(CN2CC(N(C)c3ccccc3C)C2)cc1` [NCGC00476647-01], the AC50 is 12.2 µM.

On to `COc1ccc(O)c(C(=O)c2cnc3c(c2)c(-c2ccc(F)cc2)c(C#N)c(=O)n3C)c1` [MLS001003111-01], for which the AC50 is 5.96 µM.

On to `CCc1ccc2c(c1)cc(CN(/C(S)=N/c1cccc(C)c1)C1CC1)c1nnnn12` [MLS000556704-01], for which the AC50 was 3.35 µM.

With `Cc1ccccc1NC(=O)c1cc2c(-c3ccccc3)nn(-c3ccccc3)c2s1` [NCGC00102094-01], the AC50 amounted to 11.9 µM.

On to `CCN(CC)CCC(c1ccc(N(C)C)cc1)c1c(O)cc(OC)cc1OC` (centres unmarked) [MLS000879508-01], for which the AC50 was determined as 3.35 µM.

For the molecule `O=C(C[C@@H]1CCNC[C@@H]1Cc1cc(CSc2ccccc2)on1)N1CCN(c2ccccc2)CC1` [NCGC00400854-01], the AC50 came out at 8.41 µM.

`CCn1c(=O)c2cc(C(=O)N(CC(C)C)CC(C)C)sc2c2ccccc21` [NCGC00110427-01]: the AC50 was 10.6 µM.

For `CCOc1cc(C2CC(=O)NC3=C2C(=O)C(C(=O)OC)C(C)C3)cc(Br)c1O` (centres unmarked) [MLS000090952-01], the AC50 came to 6.68 µM.

On to `COC(=O)[C@@H]1Cc2ncn(Cc3ccc(OC)cc3)c2CN1[S+](=O)([O-])Cc1ccccc1` [NCGC00401681-01], for which the AC50 was 15 µM.

In the case of `COc1ccc(Nc2cc(C)c3cc(NC(=O)c4cc(OC)cc(OC)c4)ccc3n2)cc1` [NCGC00124306-01], the AC50 amounted to 0.75 µM.

For `CCN1CCN(Cc2ccc(NC(=O)c3cc(NC(=O)c4cc(-c5ccc(OC)cc5)n[nH]4)cc(OC)c3)cc2C(F)(F)F)CC1` [MLS000911571-01], the AC50 was determined as 0.168 µM.

As to `COc1ccc(-c2c[nH]c([C@@H]3COCCN3Cc3ccccc3O)n2)cc1` [NCGC00394307-01], the AC50 is 17.2 µM.

For the molecule `Cc1ccc(C)c(C(=O)N2CCC3(CC2)NC(c2ccc(Cl)cc2)=NO3)c1` [NCGC00447013-01], the AC50 worked out at 9.44 µM.

Take `N#Cc1nn(-c2c(Cl)cc(C(F)(F)F)cc2Cl)c(N)c1[S+]([O-])C(F)(F)F` (centres unmarked) [NCGC00094574-06]: the AC50 worked out at 9.44 µM.

Consider `COc1ccc(-c2cc(-c3cccc(OC)c3OC)cn3cncc23)cc1` [NCGC00412191-01], for which the AC50 turned out to be 6.85 µM.

Take `O=C(CCC1CCCN(Cc2cccn2-c2cccnc2)C1)Nc1ccccc1F` (centres unmarked) [NCGC00427855-01]: the AC50 was determined as 6.68 µM.

Consider `O=C1N(c2ccccc2C(F)(F)F)O[C@@]1(c1ccccc1)C1CCCCC1` [MLS002206598-01], for which the AC50 was determined as 5.31 µM.

`CC(=O)Nc1ccc(NC(=O)c2c(C)oc3ccn(Cc4ccc(F)cc4)c(=O)c23)cc1` [NCGC00433889-01]: the AC50 was determined as 10.6 µM.

Consider `CC(C)c1ccccc1NC(=O)Cn1cccc1-c1nc(-c2ccc(F)cc2)no1` [NCGC00445438-01], for which the AC50 stood at 2.99 µM.

As for `CCC(C)(C)n1nnnc1C(c1cc2cccc(C)c2nc1O)N1CCN(C(=O)c2ccco2)CC1` (centres unmarked) [MLS000073230-01], the AC50 turned out to be 6.68 µM.

Turning to `COC1C(=O)N(c2cccc(F)c2)C12CCNCC2` (centres unmarked) [NCGC00463379-01], the AC50 worked out at 10.6 µM.

With `Cc1noc(C)c1-c1cc2c(cc(C)n2CCN(C)C)c(-c2cccc(O)c2)n1` [NCGC00417178-01], the AC50 is 17.2 µM.
